According to US20090137572A1, “2-substituted-4-heteroaryl-pyrimidines useful for the treatment of proliferative disorders” (priority 2004, published 2009):

Columns and labels:
Format in all cases: biochemical
Aurora A kinase = biological target: T1, Aurora A kinase (Homo sapiens, UniProt O14965); assay: Aurora-A (human) kinase assay (Kemptide substrate); conditions: pIC50 is -log(IC50, M); 15 μM ATP; read-out: Kinase Inhibition pIC50 Aurora A kinase (converted)
T1 construct: purchased
T1 sequence (O14965 1-403): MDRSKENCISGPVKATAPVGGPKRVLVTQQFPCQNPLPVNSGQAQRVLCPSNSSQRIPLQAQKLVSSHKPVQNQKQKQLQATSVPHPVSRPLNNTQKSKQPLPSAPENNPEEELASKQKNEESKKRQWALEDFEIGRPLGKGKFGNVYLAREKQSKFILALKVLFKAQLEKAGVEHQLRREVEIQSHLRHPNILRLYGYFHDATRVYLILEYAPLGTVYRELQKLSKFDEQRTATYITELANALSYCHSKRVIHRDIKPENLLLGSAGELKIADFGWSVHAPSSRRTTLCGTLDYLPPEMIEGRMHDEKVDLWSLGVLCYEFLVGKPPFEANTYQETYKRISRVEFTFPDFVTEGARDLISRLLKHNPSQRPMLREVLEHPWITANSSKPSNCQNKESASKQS
Description: Aurora-A (human) kinase assay. This was achieved by measurement of incorporation of radioactive phosphate from ATP into Kemptide substrate (LRRASLG), upon phosphorylation by commercially obtained aurora-A kinase. Assays were performed using 96-well plates and appropriate assay buffers (8 mM MOPS, 0.2 mM EDTA, pH 7.0), into which were added 5-10 ng of active enzyme with 200 μM substrate (Kemptide). The reactions were initiated by addition of Mg/ATP mix (10 mM MgAcetate+15 μM ATP with 30-50 kBq per well of [γ-^33P]-ATP) and mixtures incubated for 40 min at room temperature. Reactions were stopped by addition of 3% phosphoric acid, followed by filtration through p81 filterplates (Whatman Polyfiltronics, Kent, UK). After washing 5 times with 75 mM aq orthophosphoric acid and once in methanol, plates were dried, scintillant added and incorporated radioactivity measured in a scintillation counter (TopCount, Packard Instruments, Pangbourne, Berks, UK). Compounds for kinase assay were made up as 10 mM stocks in DMSO and diluted into 10% DMSO in assay buffer.

CDK2-cycline E = CDK2-cycline E (Homo sapiens, UniProt P24941); assay: Kinase assay (radioactive phosphate incorporation), CDK2-cyclin E; conditions: read-out: Kinase Inhibition pIC50 CDK2-cycline E (converted)
Description: (§1) Kinase assays. The compounds of the invention above were investigated for their ability to inhibit the enzymatic activity of various protein kinases (Table 2). This was achieved by measurement of incorporation of radioactive phosphate from ATP into appropriate polypeptide substrates. Recombinant protein kinases and kinase complexes were produced or obtained commercially. Assays were performed using 96-well plates and appropriate assay buffers (typically 25 mM β-glycerophosphate, 20 mM MOPS, 5 mM EGTA, 1 mM DTT, 1 mM […], pH 7.4), into which were added 2-4 μg of active enzyme with appropriate substrates. The reactions were initiated by addition of Mg/ATP mix (15 mM MgCl2+100 μM ATP with 30-50 kBq per well of [γ-^32P]-ATP) and mixtures incubated as required at 30° C. Reactions were stopped on ice, followed by filtration through p81 filterplates or GF/C filterplates (Whatman Polyfiltronics, Kent, UK). After washing 3 times with 75 mM aq orthophosphoric acid, plates were dried, scintillant added and incorporated radioactivity measured in a scintillation counter (TopCount, Packard Instruments, Pangbourne, Berks, UK). Compounds for kinase assay were made up as 10 mM stocks in DMSO and diluted into 10% DMSO in assay buffer.

CDK9/cyclin T1 = CDK9/cyclin T1 (Homo sapiens, UniProt P50750); assay: CDK 9 assay (CTD peptide substrate); conditions: read-out: Kinase Inhibition pIC50 CDK9-cyclin T1 (converted)
CDK9/cyclin T1, sequence (P50750 whole entry): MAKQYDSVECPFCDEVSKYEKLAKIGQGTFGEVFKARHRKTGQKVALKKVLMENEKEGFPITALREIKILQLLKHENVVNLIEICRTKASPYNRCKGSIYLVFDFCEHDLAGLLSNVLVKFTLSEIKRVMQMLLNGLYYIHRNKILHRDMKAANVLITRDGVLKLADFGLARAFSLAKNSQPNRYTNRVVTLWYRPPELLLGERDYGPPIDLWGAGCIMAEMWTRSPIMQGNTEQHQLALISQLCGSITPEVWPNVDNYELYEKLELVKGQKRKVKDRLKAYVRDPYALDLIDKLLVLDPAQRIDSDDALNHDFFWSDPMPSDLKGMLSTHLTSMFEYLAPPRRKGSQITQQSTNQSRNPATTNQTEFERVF
CDK9/cyclin T1, sequence (O60563 whole entry partner): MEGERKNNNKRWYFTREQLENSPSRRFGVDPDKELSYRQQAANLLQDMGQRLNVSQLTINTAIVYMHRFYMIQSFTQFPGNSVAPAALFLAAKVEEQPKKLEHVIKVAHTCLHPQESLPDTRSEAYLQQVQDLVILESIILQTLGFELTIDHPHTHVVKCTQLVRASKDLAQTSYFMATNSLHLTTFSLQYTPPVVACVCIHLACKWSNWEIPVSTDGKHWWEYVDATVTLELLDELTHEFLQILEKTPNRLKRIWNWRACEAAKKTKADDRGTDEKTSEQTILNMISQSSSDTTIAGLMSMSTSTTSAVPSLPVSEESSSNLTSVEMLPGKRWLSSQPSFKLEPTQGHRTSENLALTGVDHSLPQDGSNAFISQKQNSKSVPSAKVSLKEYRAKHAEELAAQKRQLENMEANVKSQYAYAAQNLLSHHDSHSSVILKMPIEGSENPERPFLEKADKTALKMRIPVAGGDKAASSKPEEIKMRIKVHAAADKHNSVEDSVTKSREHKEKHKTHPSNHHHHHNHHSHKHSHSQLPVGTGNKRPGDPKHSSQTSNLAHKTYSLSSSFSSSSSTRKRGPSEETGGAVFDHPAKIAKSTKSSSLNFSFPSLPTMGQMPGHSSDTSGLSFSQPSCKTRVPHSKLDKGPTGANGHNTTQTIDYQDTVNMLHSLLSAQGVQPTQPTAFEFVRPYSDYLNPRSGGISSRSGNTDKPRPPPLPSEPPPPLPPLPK
Description: as §1
(§2) CDK 7 and 9 assays. CTD peptide substrate (biotinyl-Abx-(Tyr-Ser-Pro-Thr-Ser-Pro-Ser)4-NH2; 1-2 mg/mL) and recombinant human CDK7/cyclin H, CDK9/cyclin T1, or CDK9/cyclin K (0.5-2 μg) were incubated for 45 min at 30° C. in the presence of varying amounts of test compound in 20 mM MOPS pH 7.2, 25 mM β-glycerophosphate, 5 mM EGTA, 1 mM DTT, 1 mM sodium vanadate, 15 mM MgCl2, and 100 μM ATP (containing a trace amount of ^32PγATP) in a total volume of 25 μL in a 96-well microtiter plate. The reaction was stopped by placing the plate on ice for 2 min. Avidin (50 μg) was added to each well, and the plate was incubated at room temp for 30 min. The samples were transferred to a 96-well P81 filter plate, and washed (4×200 μL per well) with 75 mM phosphoric acid. Microscint 40 scintillation liquid (50 μL) was added to each well, and the amount of ^32P incorporation for each sample was measured using a Packard Topcount microplate scintillation counter.

CDK7/cyclin H = CDK7/cyclin H (Homo sapiens, UniProt P50613); assay: CDK 7 assay (CTD peptide substrate); conditions: read-out: Kinase Inhibition pIC50 CDK7-cyclin H (converted)
CDK7/cyclin H, sequence (P50613 whole entry): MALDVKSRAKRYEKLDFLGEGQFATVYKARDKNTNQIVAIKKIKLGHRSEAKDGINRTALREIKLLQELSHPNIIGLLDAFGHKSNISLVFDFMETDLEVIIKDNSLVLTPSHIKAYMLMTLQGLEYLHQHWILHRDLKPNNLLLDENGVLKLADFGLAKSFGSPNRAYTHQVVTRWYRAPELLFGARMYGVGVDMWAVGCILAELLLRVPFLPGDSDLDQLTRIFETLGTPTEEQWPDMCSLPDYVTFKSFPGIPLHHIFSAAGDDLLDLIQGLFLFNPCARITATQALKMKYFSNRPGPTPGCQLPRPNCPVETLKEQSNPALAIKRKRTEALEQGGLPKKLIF
CDK7/cyclin H, sequence (P51946 whole entry partner): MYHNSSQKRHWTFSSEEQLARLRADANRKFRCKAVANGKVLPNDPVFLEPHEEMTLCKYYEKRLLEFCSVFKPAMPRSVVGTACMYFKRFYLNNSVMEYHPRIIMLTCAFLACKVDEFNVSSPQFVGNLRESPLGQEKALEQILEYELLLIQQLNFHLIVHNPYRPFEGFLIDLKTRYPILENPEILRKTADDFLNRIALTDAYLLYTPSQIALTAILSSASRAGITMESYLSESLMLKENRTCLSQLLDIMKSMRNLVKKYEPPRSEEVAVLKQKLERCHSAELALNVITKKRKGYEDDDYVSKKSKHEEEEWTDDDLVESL
Description: as §1, §2

In the case of `CCNc1nc(C)c(-c2ccnc(Nc3ccc(N4CCOCC4)c(C(N)=O)c3)n2)s1` [Compound 212, 5-[4-(2-Ethylamino-4-methyl-thiazol-5-yl)-pyrimidin-2-ylamino]-2-morpholin-4-yl-benzamide], the IC50 (Aurora A kinase) was 63.1 nM, the IC50 (CDK2-cycline E) was 1000 nM and the IC50 (CDK9/cyclin T1) was 1260 nM.

Work on `CCOC(=O)N1CCN(c2ccc(Nc3nccc(-c4sc(C)nc4C)n3)cc2)CC1` [Compound 189, 4-{4-[4-(2,4-Dimethyl-thiazol-5-yl)-pyrimidin-2-ylamino]-phenyl}-piperazine-1-carboxylic acid ethyl ester] yielded an IC50 (Aurora A kinase) of 100 nM, an IC50 (CDK2-cycline E) of 2000 nM and an IC50 (CDK9/cyclin T1) of 2000 nM.

In the case of `Cc1nc(CO)sc1-c1ccnc(Nc2ccc(N3CCOCC3)cc2)n1` [Compound 188, {4-Methyl-5-[2-(4-morpholin-4-yl-phenylamino)-pyrimidin-4-yl]-thiazol-2-yl}-methanol], the IC50 (Aurora A kinase) was 79.4 nM, the IC50 (CDK2-cycline E) was 1580 nM and the IC50 (CDK9/cyclin T1) was 3980 nM.

Molecule `Cc1nc(C)c(-c2ccnc(Nc3ccc(N4CCCCC4)cc3)n2)s1` [Compound 193, [4-(2,4-Dimethyl-thiazol-5-yl)-pyrimidin-2-yl]-(4-piperidin-1-yl-phenyl)-amine] has an IC50 (Aurora A kinase) of 200 nM and an IC50 (CDK9/cyclin T1) of 3980 nM.

`Cc1nc(C)c(-c2ccnc(Nc3ccc(N4CCN(C(=O)C5CC5)CC4)cc3)n2)s1` [Compound 213, Cyclopropyl-(4-{4-[4-(2,4-dimethyl-thiazol-5-yl)-pyrimidin-2-ylamino]-phenyl}-piperazin-1-yl)-methanone] was tested, and the IC50 (Aurora A kinase) was 39.8 nM, the IC50 (CDK2-cycline E) was 1580 nM and the IC50 (CDK9/cyclin T1) was 2510 nM.

In the case of `CCNc1nc(C)c(-c2ccnc(Nc3ccc(N4CCOCC4)c(Cl)c3)n2)s1` [Compound 134, (3-Chloro-4-morpholin-4-yl-phenyl)-[4-(2-ethylamino-4-methyl-thiazol-5-yl)-pyrimidin-2-yl]-amine], the IC50 (Aurora A kinase) was 126 nM and the IC50 (CDK2-cycline E) was 200 nM.

For `CNc1ccc(Nc2nccc(-c3sc(C)nc3C)n2)cc1C(F)(F)F` [Compound 149, N^4-[4-(2,4-Dimethyl-thiazol-5-yl)-pyrimidin-2-yl]-N^1-methyl-2-trifluoromethyl-benzene-1,4-diamine], the IC50 (Aurora A kinase) was 398 nM and the IC50 (CDK2-cycline E) was 251 nM.

With `COc1ccc(Nc2nccc(-c3sc(C)nc3C)n2)cc1CN1CCOCC1` [Compound 215, [4-(2,4-Dimethyl-thiazol-5-yl)-pyrimidin-2-yl]-(4-methoxy-3-morpholin-4-ylmethyl-phenyl)-amine] the IC50 (Aurora A kinase) was 200 nM and the IC50 (CDK2-cycline E) was 1580 nM.

For `CNc1nc(C)c(-c2ccnc(Nc3ccc(OC)c(C)c3)n2)s1` [Compound 184, (4-Methoxy-3-methyl-phenyl)-[4-(4-methyl-2-methylamino-thiazol-5-yl)-pyrimidin-2-yl]-amine], the IC50 (Aurora A kinase) was 63.1 nM and the IC50 (CDK2-cycline E) was 126 nM.

`CCNc1nc(C)c(-c2ccnc(Nc3cccc(Br)c3)n2)s1` [Compound 50, (3-Bromo-phenyl)-[4-(2-ethylamino-4-methyl-thiazol-5-yl)-pyrimidin-2-yl]-amine] gave an IC50 (Aurora A kinase) of 20 nM and an IC50 (CDK9/cyclin T1) of 200 nM.

In the case of `CNc1nc(C)c(-c2ccnc(Nc3cccc(S(=O)(=O)Nc4cccc(OC)c4)c3)n2)s1` [Compound 32, N-(3-Methoxy-phenyl)-3-[4-(4-methyl-2-methylamino-thiazol-5-yl)-pyrimidin-2-ylamino]-benzenesulfonamide], the IC50 (Aurora A kinase) was 12.6 nM, the IC50 (CDK7/cyclin H) was 5010 nM and the IC50 (CDK9/cyclin T1) was 2510 nM.

`CCNc1nc(C)c(-c2ccnc(Nc3ccc(OC)c(C)c3)n2)s1` [Compound 187, [4-(2-Ethylamino-4-methyl-thiazol-5-yl)-pyrimidin-2-yl]-(4-methoxy-3-methyl-phenyl)-amine] showed an IC50 (Aurora A kinase) of 100 nM and an IC50 (CDK2-cycline E) of 794 nM.

Work on `CCNc1nc(C)c(-c2ccnc(Nc3ccc(N4CCN(C)CC4)cc3)n2)s1` [Compound 196, [4-(2-Ethylamino-4-methyl-thiazol-5-yl)-pyrimidin-2-yl]-[4-(4-methyl-piperazin-1-yl)-phenyl]-amine] yielded an IC50 (Aurora A kinase) of 200 nM and an IC50 (CDK2-cycline E) of 631 nM.
